Test results from the supplement of paper PMC11451515.

System: P12-Ichikawa
Assay: cell viability relative to DMSO control; higher = less cytotoxic
Details: 48 h
Method in brief: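 Viability values are per-plate percentages of DMSO wells, with background from cell-free wells. Library compounds in DMSO were pin-dosed, in an 11-point threefold series from 47 μM to 0.79 nM, onto NOMO1 or SEM (500 cells/well) or P12-Ichikawa (1000 cells/well) leukemia cells in 1536-well plates (5 μl). Those cells had been adapted for at least four passages in each medium, and CellTiter-Glo One luminescence was read after 48 h at 37°C.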

[1] = HPLM + 10% dialyzed FBS, 0.000781 µM
[2] = HPLM + 10% dialyzed FBS, 0.00234 µM
[3] = HPLM + 10% dialyzed FBS, 0.00702 µM
[4] = HPLM + 10% dialyzed FBS, 0.0211 µM
[5] = HPLM + 10% dialyzed FBS, 0.0632 µM
[6] = HPLM + 10% dialyzed FBS, 0.19 µM
[7] = HPLM + 10% dialyzed FBS, 0.569 µM
[8] = HPLM + 10% dialyzed FBS, 1.71 µM
[9] = HPLM + 10% dialyzed FBS, 5.12 µM
[10] = HPLM + 10% dialyzed FBS, 15.4 µM
[11] = HPLM + 10% dialyzed FBS, 46.1 µM
[12] = RPMI 5 mM glucose + 10% FBS, 0.000781 µM
[13] = RPMI 5 mM glucose + 10% FBS, 0.00234 µM
[14] = RPMI 5 mM glucose + 10% FBS, 0.00702 µM
[15] = RPMI 5 mM glucose + 10% FBS, 0.0211 µM
[16] = RPMI 5 mM glucose + 10% FBS, 0.0632 µM
[17] = RPMI 5 mM glucose + 10% FBS, 0.19 µM
[18] = RPMI 5 mM glucose + 10% FBS, 0.569 µM
[19] = RPMI 5 mM glucose + 10% FBS, 1.71 µM
[20] = RPMI 5 mM glucose + 10% FBS, 5.12 µM
[21] = RPMI 5 mM glucose + 10% FBS, 15.4 µM
[22] = RPMI 5 mM glucose + 10% FBS, 46.1 µM
[23] = RPMI 5 mM glucose + 10% dialyzed FBS, 0.000781 µM
[24] = RPMI 5 mM glucose + 10% dialyzed FBS, 0.00234 µM
[25] = RPMI 5 mM glucose + 10% dialyzed FBS, 0.00702 µM
[26] = RPMI 5 mM glucose + 10% dialyzed FBS, 0.0211 µM
[27] = RPMI 5 mM glucose + 10% dialyzed FBS, 0.0632 µM
[28] = RPMI 5 mM glucose + 10% dialyzed FBS, 0.19 µM
[29] = RPMI 5 mM glucose + 10% dialyzed FBS, 0.569 µM
[30] = RPMI 5 mM glucose + 10% dialyzed FBS, 1.71 µM
[31] = RPMI 5 mM glucose + 10% dialyzed FBS, 5.12 µM
[32] = RPMI 5 mM glucose + 10% dialyzed FBS, 15.4 µM
[33] = RPMI 5 mM glucose + 10% dialyzed FBS, 46.1 µM

| SMILES | cell viability [1] [%] | cell viability [2] [%] | cell viability [3] [%] | cell viability [4] [%] | cell viability [5] [%] | cell viability [6] [%] | cell viability [7] [%] | cell viability [8] [%] | cell viability [9] [%] | cell viability [10] [%] | cell viability [11] [%] | cell viability [12] [%] | cell viability [13] [%] | cell viability [14] [%] | cell viability [15] [%] | cell viability [16] [%] | cell viability [17] [%] | cell viability [18] [%] | cell viability [19] [%] | cell viability [20] [%] | cell viability [21] [%] | cell viability [22] [%] | cell viability [23] [%] | cell viability [24] [%] | cell viability [25] [%] | cell viability [26] [%] | cell viability [27] [%] | cell viability [28] [%] | cell viability [29] [%] | cell viability [30] [%] | cell viability [31] [%] | cell viability [32] [%] | cell viability [33] [%] |
| --- | --- | --- | --- | --- | --- | --- | --- | --- | --- | --- | --- | --- | --- | --- | --- | --- | --- | --- | --- | --- | --- | --- | --- | --- | --- | --- | --- | --- | --- | --- | --- | --- | --- |
| CC[C@H](NC1=C2N=C[NH]C2=NC=N1)C/3=N/C4=C(C(=CC=C4)F)C(=O)N3C5=CC=CC=C5 | 125 | 118 | 122 | 131 | 133 | 120 | 115 | 118 | 101 | 88.9 | 56.3 | 114 | 115 | 118 | 120 | 128 | 104 | 86.6 | 94.7 | 78.2 | 61.9 | 50.2 | 124 | 123 | 125 | 132 | 131 | 115 | 99.7 | 98.7 | 91.7 | 70.7 | 51.9 |
| CC1(C)O[C@@H]2C[C@H]3[C@@H]4C[C@H](F)C5=CC(=O)C=C[C@]5(C)[C@@]4(F)[C@@H](O)C[C@]3(C)[C@]2(C(=O)CO)O1 | 107 | 110 | 99.4 | 83.8 | 71.1 | 56.4 | 69.1 | 60.7 | 52.6 | 62.9 | 53 | 106 | 99.4 | 96.4 | 78.7 | 55.4 | 53.2 | 50.2 | 53 | 51.7 | 46.4 | 43.5 | 74.9 | 103 | 94.6 | 67.9 | 50.8 | 46.7 | 47.6 | 42.5 | 40.6 | 36.8 | 30.4 |
| CNC(=O)c1ccc(N2C(=S)N(c3cnc(C#N)c(C(F)(F)F)c3)C(=O)C23CCC3)cc1F | 94.2 | 109 | 109 | 109 | 112 | 111 | 111 | 114 | 109 | 95 | 96.3 | 86.7 | 95.7 | 97.5 | 106 | 109 | 107 | 117 | 113 | 111 | 92.8 | 96.1 | 90.5 | 111 | 118 | 118 | 118 | 119 | 116 | 123 | 126 | 128 | 101 |
| N[S+]([O-])(=O)C1=C(Cl)C=C2\N=C/N[S+]([O-])(=O)C2=C1 | 101 | 100 | 102 | 97.5 | 106 | 108 | 108 | 119 | 110 | 106 | 109 | 97.3 | 106 | 107 | 113 | 117 | 114 | 112 | 122 | 115 | 120 | 122 | 101 | 96.2 | 111 | 115 | 114 | 110 | 114 | 100 | 115 | 115 | 109 |
| C[C@H]1C[C@@H]2[C@H](CC[C@@]3(C)[C@H]2CC[C@]3(OC(C)=O)C(C)=O)[C@@]\4(C)CCC(=O)\C=C14 | 99.8 | 105 | 111 | 107 | 122 | 115 | 114 | 107 | 98.7 | 95.5 | 107 | 112 | 112 | 123 | 108 | 113 | 113 | 110 | 101 | 94.3 | 80.3 | 96.3 | 101 | 113 | 102 | 107 | 120 | 103 | 96.3 | 93.7 | 96 | 80.1 | 88.4 |
| CCc1ccc(CCOc2ccc(CC3SC(=O)NC3=O)cc2)nc1 (stereo not given) | 121 | 118 | 123 | 117 | 116 | 113 | 113 | 113 | 108 | 108 | 108 | 118 | 112 | 118 | 115 | 117 | 112 | 127 | 119 | 109 | 118 | 119 | 123 | 118 | 129 | 120 | 126 | 116 | 114 | 121 | 120 | 111 | 100 |
| COc1ccc(-c2ccc3ncc4c(c3c2)n(-c2ccc(N3CCNCC3)c(C(F)(F)F)c2)c(=O)n4C)cn1 | 99.5 | 92.5 | 79.1 | 74.1 | 72.5 | 48.5 | 48.9 | 40.1 | 30 | 4.22 | 3.22 | 81.7 | 73.2 | 72.3 | 64.2 | 59.4 | 34.7 | 22 | 8.29 | 6.08 | 4.14 | 4 | 86.1 | 91.5 | 63 | 65.8 | 60.9 | 47.1 | 34 | 5.19 | 5.18 | 4.63 | 3.63 |
| Clc1ccc(-c2nc3sccn3c2/C=N/OCc2ccc(Cl)c(Cl)c2)cc1 | 114 | 109 | 107 | 112 | 108 | 103 | 104 | 106 | 101 | 99.9 | 98 | 111 | 113 | 118 | 102 | 113 | 108 | 110 | 110 | 98.5 | 96.5 | 98.9 | 114 | 110 | 101 | 110 | 110 | 100 | 102 | 101 | 91.3 | 101 | 102 |
| Cn1cnc2c(F)c(Nc3ccc(Br)cc3F)c(C(=O)NOCCO)cc21 | 88.4 | 101 | 96.6 | 11.1 | 102 | 91.9 | 91 | 85.7 | 87.2 | 86.3 | 81.2 | 84.5 | 92.6 | 96.7 | 13.6 | 92.3 | 82.7 | 80.1 | 78.2 | 75.5 | 74.2 | 73.1 | 91 | 98 | 101 | 26.2 | 97 | 93.5 | 83.8 | 89.1 | 91.8 | 86.6 | 81.4 |
| CCC[S+]([O-])c1ccc2[nH]c(NC(=O)OC)nc2c1 (stereo not given) | 98.5 | 101 | 95.7 | 96.5 | 101 | 92.7 | 102 | 91.3 | 89.5 | 25.3 | 22.6 | 84.2 | 89.9 | 89 | 89.2 | 89.7 | 93.9 | 99.8 | 85.7 | 82 | 51.1 | 27 | 92.9 | 98.8 | 87.7 | 91.2 | 95.7 | 87 | 86.3 | 84.3 | 90 | 63 | 34.7 |
| FC1=C(C=C(C\C2=N\NC(=O)C3=C2C=CC=C3)C=C1)C(=O)N4CCN(CC4)C(=O)C5CC5 | 81.1 | 90.8 | 94 | 96.2 | 99 | 87.4 | 95.6 | 85.7 | 85.5 | 88.3 | 49.4 | 81.6 | 84.1 | 86.7 | 88.2 | 88.7 | 86.5 | 86.1 | 82.5 | 83.8 | 72.1 | 38.9 | 78.9 | 87.3 | 86.5 | 87.1 | 91.2 | 93.2 | 82 | 82.1 | 78.9 | 73 | 53.9 |
| CC(C)c1nc(CN(C)C(=O)N[C@H](C(=O)N[C@@H](Cc2ccccc2)C[C@H](O)[C@H](Cc2ccccc2)NC(=O)OCc2cncs2)C(C)C)cs1 | 91.9 | 87.4 | 87.2 | 102 | 103 | 92.1 | 78.4 | 78.2 | 83.9 | 85.8 | 89.6 | 87.2 | 86.5 | 87.7 | 84.2 | 92.4 | 92.6 | 77.2 | 90.1 | 81.5 | 79.8 | 88.2 | 85.3 | 79.8 | 89.4 | 83.4 | 92.6 | 87.2 | 70.8 | 82.2 | 77.9 | 82.8 | 82.3 |
| c1ccc(CCCN2CCN(CCOC(c3ccccc3)c3ccccc3)CC2)cc1 | 89.2 | 90.8 | 104 | 95.5 | 99.2 | 91.3 | 89.7 | 87.5 | 91.6 | 77.3 | 67.3 | 91.4 | 97.1 | 94.4 | 94.5 | 93.9 | 94 | 98.2 | 90.2 | 92.3 | 78.4 | 55 | 83.7 | 88.3 | 88 | 91.4 | 94.1 | 85 | 94.7 | 87.1 | 88.5 | 75.2 | 38.3 |
| COC(=O)C[C@](O)(CCCC(C)(C)O)C(=O)O[C@@H]1C(OC)=CC23CCCN2CCc2cc4c(cc2[C@H]13)OCO4 (stereo not given in full) | 105 | 102 | 111 | 99.4 | 110 | 106 | 102 | 97.1 | 102 | 91.3 | 88.1 | 99 | 101 | 111 | 94.8 | 91.5 | 101 | 103 | 97.7 | 95.1 | 91.7 | 94.1 | 102 | 104 | 98.6 | 99.7 | 102 | 98.3 | 97.3 | 96 | 91.6 | 100 | 89.5 |
| CC(C)(C)NC(=O)Nc1cccc(Nc2ncc(F)c(NC(C)(C)CO)n2)c1 | 105 | 110 | 112 | 114 | 118 | 121 | 117 | 120 | 108 | 14.7 | 24.4 | 114 | 118 | 124 | 121 | 129 | 121 | 122 | 132 | 116 | 35.2 | 40.4 | 120 | 117 | 120 | 116 | 124 | 119 | 117 | 119 | 114 | 34.6 | 51 |
